In data set [1] the test system is Panel NCI-60 (60 carcinoma cell lines). Description: Antiproliferative activity against human Panel NCI-60 (60 carcinoma cell lines) assessed as growth inhibition. Format: functional.
For another data set, the system named is OVCAR-4. Description: Antiproliferative activity against human OVCAR-4 cells assessed as growth inhibition. The class given is functional, cell-based.
The subject of another data set is MOLT-4. Put plainly: Antiproliferative activity against human MOLT-4 cells assessed as growth inhibition. Format: functional.
A further data set deals with MDA-MB-468. Put plainly: Antiproliferative activity against human MDA-MB-468 cells assessed as growth inhibition. Format: functional, cell-based.
The test system of another data set is LOX IMVI. Description: Antiproliferative activity against human LOX IMVI cells assessed as growth inhibition. The class given is functional.
A further data set has as its system SR. Put plainly: Antiproliferative activity against human SR cells assessed as growth inhibition. Format: functional.
For another data set, the system named is NCI/ADR-RES. Put plainly: Antiproliferative activity against human NCI/ADR-RES cells assessed as growth inhibition. The class given is functional, cell-based.
Data set [2] is described as follows: Inhibition of DNAJB1-PKAcalpha (unknown origin) using biotinylated-peptide substrate CREB incubated for 45 mins in presence of ATP and cAMP by ELISA. Also noted: species or system Homo sapiens. Background: ELISA stands for enzyme-linked immunosorbent assay.
The nature of data set [3]: Inhibition of DNAJB1-PKAcalpha (unknown origin) overexpressed in mouse NIH/3T3 cells assessed as inhibition of CREB phosphorylation at Ser133 residue preincubated for 30 mins followed by forskolin addition and measured after 30 mins by fluorescence based multilabel reader analysis. Particulars: NIH3T3. Format: cell-based.
Data set [4] is filed under the species Homo sapiens. Description: Induction of thermal stabilization of His-tagged DNAJB1-PKAcalpha (unknown origin) incubated for 15 min by differential scanning fluorometric analysis. On the technique in general: Differential scanning fluorimetry follows unfolding on heating by fluorescence.
For data set [5], the species on record is Homo sapiens. Put plainly: Induction of thermal stabilization of His-tagged DNAJB1-PKAcalpha (unknown origin) assessed as change in melting temperature incubated for 15 min by differential scanning fluorometric analysis.
In data set [6] the target is cAMP-dependent protein kinase catalytic subunit beta (Homo sapiens) (UniProt P22694). Description: Inhibition of human PKAbeta at 50 nM in presence of ATP by radiometric Hotspot kinase assay.
For data set [7], the target named is Dual specificity protein kinase CLK1 (Homo sapiens) (UniProt P49759). Description: Inhibition of human CLK1 at 50 nM in presence of ATP by radiometric Hotspot kinase assay relative to control.
Dual specificity protein kinase CLK1 (Homo sapiens), sequence (P49759 whole entry, looked up): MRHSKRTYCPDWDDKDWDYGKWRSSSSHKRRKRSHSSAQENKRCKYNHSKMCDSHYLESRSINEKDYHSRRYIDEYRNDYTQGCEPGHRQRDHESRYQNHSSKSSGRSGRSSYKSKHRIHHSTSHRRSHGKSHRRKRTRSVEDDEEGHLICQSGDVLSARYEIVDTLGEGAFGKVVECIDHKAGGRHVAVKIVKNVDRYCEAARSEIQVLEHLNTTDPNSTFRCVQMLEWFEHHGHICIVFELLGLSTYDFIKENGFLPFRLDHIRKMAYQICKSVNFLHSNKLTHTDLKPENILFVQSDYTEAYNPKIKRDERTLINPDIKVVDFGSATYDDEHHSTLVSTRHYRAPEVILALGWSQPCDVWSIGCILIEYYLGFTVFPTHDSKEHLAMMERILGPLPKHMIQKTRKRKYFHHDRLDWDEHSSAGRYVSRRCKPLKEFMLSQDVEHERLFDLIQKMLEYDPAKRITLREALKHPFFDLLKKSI
The target of data set [8] is Dual specificity protein kinase CLK2 (Homo sapiens) (UniProt P49760). Description: Inhibition of human CLK2 at 50 nM in presence of ATP by radiometric Hotspot kinase assay relative to control.
Dual specificity protein kinase CLK2 (Homo sapiens), sequence (P49760 whole entry, looked up): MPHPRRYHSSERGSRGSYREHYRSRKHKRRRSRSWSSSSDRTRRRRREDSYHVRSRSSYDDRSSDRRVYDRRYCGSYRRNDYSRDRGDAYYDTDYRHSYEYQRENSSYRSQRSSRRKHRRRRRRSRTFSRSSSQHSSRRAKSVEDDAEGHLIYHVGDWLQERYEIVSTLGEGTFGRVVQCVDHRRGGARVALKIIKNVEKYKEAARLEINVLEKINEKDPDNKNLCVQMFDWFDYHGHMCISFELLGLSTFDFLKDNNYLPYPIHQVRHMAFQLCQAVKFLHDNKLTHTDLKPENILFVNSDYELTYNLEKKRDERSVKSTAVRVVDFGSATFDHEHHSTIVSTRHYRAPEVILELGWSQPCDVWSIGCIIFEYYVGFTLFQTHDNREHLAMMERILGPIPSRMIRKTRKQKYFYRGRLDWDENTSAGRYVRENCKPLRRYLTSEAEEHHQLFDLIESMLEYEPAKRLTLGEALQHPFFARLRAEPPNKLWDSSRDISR
Data set [9] has as its target Dual specificity protein kinase CLK3 (Homo sapiens) (UniProt P49761). Put plainly: Inhibition of human CLK3 at 50 nM in presence of ATP by radiometric Hotspot kinase assay relative to control.
Data set [10] has as its target Dual specificity protein kinase CLK4 (Homo sapiens) (UniProt Q9HAZ1). Put plainly: Inhibition of human CLK4 at 50 nM in presence of ATP by radiometric Hotspot kinase assay relative to control.
The target of data set [11] is Dual specificity tyrosine-phosphorylation-regulated kinase 1A (Homo sapiens) (UniProt Q13627). Description: Inhibition of human DYRK1A at 50 nM in presence of ATP by radiometric Hotspot kinase assay relative to control.
In data set [12] the target is Dual specificity tyrosine-phosphorylation-regulated kinase 1B (Homo sapiens) (UniProt Q9Y463). Put plainly: Inhibition of human DYRK1B at 50 nM in presence of ATP by radiometric Hotspot kinase assay relative to control.
Dual specificity tyrosine-phosphorylation-regulated kinase 1B (Homo sapiens), sequence (Q9Y463 whole entry, looked up): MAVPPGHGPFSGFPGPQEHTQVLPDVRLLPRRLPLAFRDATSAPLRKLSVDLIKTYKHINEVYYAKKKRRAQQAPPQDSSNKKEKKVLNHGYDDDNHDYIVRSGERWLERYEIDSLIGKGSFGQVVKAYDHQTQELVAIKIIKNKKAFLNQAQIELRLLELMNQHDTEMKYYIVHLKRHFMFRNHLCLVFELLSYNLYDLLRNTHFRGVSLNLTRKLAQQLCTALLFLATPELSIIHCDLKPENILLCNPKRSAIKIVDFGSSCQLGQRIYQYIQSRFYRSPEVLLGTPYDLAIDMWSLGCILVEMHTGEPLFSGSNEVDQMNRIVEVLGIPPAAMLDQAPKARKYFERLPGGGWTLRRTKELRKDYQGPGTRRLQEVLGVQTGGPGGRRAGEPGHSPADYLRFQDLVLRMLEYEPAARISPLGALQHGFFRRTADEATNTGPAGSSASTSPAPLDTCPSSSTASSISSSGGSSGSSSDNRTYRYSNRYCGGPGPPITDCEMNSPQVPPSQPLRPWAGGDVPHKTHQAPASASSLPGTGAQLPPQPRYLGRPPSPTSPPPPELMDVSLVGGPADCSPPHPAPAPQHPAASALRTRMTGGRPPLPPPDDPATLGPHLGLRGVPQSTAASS
Data set [13] concerns the target T1, Dual specificity tyrosine-phosphorylation-regulated kinase 2 (Homo sapiens) (UniProt Q92630).
T1 sequence (whole entry): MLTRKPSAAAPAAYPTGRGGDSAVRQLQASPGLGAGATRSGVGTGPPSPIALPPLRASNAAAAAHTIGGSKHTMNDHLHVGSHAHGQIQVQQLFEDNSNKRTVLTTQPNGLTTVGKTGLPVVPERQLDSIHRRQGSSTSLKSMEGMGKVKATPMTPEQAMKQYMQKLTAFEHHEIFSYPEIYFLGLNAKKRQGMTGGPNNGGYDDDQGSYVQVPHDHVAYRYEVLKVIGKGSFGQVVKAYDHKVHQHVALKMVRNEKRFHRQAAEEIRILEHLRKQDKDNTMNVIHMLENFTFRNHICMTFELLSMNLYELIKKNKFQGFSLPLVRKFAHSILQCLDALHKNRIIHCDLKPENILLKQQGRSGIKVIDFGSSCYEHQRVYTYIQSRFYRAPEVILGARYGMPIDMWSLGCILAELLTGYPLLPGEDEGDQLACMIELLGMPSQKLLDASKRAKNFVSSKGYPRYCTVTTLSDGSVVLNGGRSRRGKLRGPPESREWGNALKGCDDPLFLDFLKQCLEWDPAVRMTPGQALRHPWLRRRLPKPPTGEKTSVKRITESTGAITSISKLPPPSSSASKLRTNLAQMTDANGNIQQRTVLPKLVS
Put plainly: Inhibition of human DYRK2 at 50 nM in presence of ATP by radiometric Hotspot kinase assay relative to control.

Data set [14] has as its target T2, Dual specificity tyrosine-phosphorylation-regulated kinase 3 (Homo sapiens) (UniProt O43781).
T2 sequence (whole entry): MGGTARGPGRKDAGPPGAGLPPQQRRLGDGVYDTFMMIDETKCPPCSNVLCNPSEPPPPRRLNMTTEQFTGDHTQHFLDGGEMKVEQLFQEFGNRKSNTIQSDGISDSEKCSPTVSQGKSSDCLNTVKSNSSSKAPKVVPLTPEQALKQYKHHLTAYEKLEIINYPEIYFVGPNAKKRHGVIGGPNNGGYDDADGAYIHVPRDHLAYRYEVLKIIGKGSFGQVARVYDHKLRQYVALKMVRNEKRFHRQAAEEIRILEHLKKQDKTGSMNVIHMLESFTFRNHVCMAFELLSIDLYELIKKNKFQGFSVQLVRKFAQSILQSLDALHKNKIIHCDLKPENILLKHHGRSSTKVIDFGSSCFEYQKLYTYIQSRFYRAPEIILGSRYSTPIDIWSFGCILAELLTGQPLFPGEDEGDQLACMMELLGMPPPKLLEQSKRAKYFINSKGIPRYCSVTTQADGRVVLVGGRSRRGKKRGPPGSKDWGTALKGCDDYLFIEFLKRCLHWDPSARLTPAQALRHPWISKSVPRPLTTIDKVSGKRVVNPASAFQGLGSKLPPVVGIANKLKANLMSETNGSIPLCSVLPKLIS
Put plainly: Inhibition of human DYRK3 at 50 nM in presence of ATP by radiometric Hotspot kinase assay relative to control.

Data set [15] has as its target Dual specificity tyrosine-phosphorylation-regulated kinase 4 (Homo sapiens) (UniProt Q9NR20). Description: Inhibition of human DYRK4 at 50 nM in presence of ATP by radiometric Hotspot kinase assay relative to control.
The target of data set [16] is T3, cGMP-dependent protein kinase 1 (Homo sapiens) (UniProt Q13976).
T3 sequence (whole entry): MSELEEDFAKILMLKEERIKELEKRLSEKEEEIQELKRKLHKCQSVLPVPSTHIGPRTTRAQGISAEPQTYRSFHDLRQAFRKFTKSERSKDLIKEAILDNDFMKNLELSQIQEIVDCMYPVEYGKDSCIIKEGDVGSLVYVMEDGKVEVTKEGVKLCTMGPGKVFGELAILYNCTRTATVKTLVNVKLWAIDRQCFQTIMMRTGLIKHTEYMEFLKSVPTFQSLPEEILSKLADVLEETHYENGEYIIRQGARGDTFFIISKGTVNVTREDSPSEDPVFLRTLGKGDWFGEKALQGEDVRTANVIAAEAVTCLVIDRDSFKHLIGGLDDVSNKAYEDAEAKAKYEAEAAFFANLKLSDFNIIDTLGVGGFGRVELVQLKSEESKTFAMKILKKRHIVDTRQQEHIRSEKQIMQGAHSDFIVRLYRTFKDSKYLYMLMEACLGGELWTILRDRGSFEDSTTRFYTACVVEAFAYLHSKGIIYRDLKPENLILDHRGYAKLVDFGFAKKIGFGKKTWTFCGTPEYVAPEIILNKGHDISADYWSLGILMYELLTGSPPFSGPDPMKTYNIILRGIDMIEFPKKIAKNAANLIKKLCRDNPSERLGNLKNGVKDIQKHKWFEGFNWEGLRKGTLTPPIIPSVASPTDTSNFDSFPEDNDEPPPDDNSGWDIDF
Conditions: dose 50.0 nM.
Description: Inhibition of human PKG1alpha at 50 nM in presence of ATP by radiometric Hotspot kinase assay

In data set [17] the target is cAMP-dependent protein kinase catalytic subunit alpha (Homo sapiens) (UniProt P17612). Particulars: dose 50.0 nM.
Description: Inhibition of human PKAalpha at 50 nM in presence of ATP by radiometric Hotspot kinase assay relative to control
The next data set deals with Albumin (Homo sapiens, UniProt P02768). Description: Binding affinity to human serum albumin assessed as protein binding at 10 uM by equilibrium dialysis technique relative to control. Format: ADME. Particulars: isolated protein. For orientation: In equilibrium dialysis only unbound substance equilibrates across the membrane.
Albumin, sequence (P02768 whole entry): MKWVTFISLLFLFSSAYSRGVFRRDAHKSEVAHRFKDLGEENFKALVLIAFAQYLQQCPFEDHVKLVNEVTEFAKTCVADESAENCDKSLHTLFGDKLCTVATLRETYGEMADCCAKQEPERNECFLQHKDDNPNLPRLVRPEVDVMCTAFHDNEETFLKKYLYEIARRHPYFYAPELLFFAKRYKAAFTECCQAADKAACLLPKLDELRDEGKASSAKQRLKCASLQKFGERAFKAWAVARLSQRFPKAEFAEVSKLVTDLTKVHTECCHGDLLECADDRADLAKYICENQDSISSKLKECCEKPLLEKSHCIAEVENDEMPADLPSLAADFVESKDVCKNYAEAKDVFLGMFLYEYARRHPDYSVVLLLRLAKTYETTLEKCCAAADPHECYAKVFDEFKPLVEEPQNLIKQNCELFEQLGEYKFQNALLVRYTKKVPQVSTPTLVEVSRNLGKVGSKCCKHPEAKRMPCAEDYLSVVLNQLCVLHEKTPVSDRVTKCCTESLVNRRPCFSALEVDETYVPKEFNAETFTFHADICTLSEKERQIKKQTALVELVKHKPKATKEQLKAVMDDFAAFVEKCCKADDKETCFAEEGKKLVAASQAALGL

Calls of active or inactive are those of the source. The rule behind the calls is not given here. Bounds are passed on as bounds.

In general, GI50 refers to the concentration giving 50% growth inhibition. As a reminder, the IC50 is the concentration at which inhibition is half-maximal. What is called ΔTm is the shift of the melting midpoint relative to a reference. One may read the inhibition as the change of the read-out against control, counted positive when it falls. In general, LC50 refers to the concentration that kills 50% of the test population.

Dual specificity tyrosine-phosphorylation-regulated kinase 4 (Homo sapiens), sequence (Q9NR20 whole entry): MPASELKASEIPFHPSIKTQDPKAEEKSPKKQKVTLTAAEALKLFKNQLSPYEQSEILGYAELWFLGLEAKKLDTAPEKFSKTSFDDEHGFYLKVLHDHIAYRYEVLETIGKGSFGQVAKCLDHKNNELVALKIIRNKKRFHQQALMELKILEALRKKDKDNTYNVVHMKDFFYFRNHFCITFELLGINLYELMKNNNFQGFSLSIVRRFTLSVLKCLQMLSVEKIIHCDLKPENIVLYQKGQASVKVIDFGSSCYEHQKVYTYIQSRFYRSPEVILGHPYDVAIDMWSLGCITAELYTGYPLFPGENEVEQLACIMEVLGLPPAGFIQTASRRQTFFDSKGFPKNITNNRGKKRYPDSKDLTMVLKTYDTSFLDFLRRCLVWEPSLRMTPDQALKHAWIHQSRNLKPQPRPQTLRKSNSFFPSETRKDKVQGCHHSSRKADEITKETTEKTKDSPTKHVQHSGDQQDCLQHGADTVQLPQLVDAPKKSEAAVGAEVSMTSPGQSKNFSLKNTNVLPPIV
Dual specificity protein kinase CLK4 (Homo sapiens), sequence (Q9HAZ1 whole entry, looked up): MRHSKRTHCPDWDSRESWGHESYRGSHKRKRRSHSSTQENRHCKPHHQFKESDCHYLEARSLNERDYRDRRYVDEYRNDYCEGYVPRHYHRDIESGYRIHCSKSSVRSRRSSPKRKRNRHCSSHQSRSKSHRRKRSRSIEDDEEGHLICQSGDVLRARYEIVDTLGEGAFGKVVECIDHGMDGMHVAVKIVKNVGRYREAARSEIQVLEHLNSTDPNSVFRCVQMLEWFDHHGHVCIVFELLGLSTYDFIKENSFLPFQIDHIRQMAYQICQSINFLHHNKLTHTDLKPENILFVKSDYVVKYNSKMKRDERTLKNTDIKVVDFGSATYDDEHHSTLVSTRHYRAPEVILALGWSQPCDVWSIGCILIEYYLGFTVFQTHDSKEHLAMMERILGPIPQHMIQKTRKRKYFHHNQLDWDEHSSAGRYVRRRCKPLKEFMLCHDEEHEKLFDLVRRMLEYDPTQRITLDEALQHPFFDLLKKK
Dual specificity protein kinase CLK3 (Homo sapiens), sequence (P49761 whole entry, looked up): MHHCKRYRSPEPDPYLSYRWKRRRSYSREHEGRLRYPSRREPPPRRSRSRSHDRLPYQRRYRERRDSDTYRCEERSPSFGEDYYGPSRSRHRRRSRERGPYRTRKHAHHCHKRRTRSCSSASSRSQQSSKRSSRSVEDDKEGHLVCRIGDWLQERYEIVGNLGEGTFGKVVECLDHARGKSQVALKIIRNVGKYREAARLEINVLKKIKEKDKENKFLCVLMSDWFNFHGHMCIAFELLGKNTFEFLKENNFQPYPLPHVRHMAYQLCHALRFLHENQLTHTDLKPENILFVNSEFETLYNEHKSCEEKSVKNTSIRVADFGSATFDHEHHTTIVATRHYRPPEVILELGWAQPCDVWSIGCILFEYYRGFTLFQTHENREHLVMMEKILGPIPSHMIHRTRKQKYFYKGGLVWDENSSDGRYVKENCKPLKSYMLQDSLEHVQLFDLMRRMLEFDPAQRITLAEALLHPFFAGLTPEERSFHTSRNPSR

Regarding `Cn1c(Br)nc(Br)c1C1=CN(c2ncnc3[nH]cnc23)CCS1`, the concentration for 50% growth inhibition (GI50) was 360 nM in data set [1] and above 1000 nM in the data set on LOX IMVI. In addition, the outcome in the data set with OVCAR-4 and in the data set on NCI/ADR-RES was inactive. Besides, the outcome in the data set on MOLT-4, in the data set with MDA-MB-468 and in the data set on SR was Active.

Turning to `Cn1cncc1N1C=C(c2ccnc3[nH]ccc23)SCC1`, the IC50 came out at 25 nM in [2] and 5560 nM in data set [3]. Further, the outcome in the data set on OVCAR-4 and in the data set on NCI/ADR-RES was inactive. For the same compound, the result in the data set on MOLT-4, with MDA-MB-468 and with SR was Active. Moreover, the GI50 in the data set on LOX IMVI was above 1000 nM. Besides, the Activity entry in the data set filed under Homo sapiens [4] is “Dose-dependent-effect”. In addition, the ΔTm in the data set listed under Homo sapiens [5] came out at 6 °C. The inhibition result in data set [6] and in data set [16] was “Active” in each case. For the same compound, the inhibition in [7], in [8], in data set [9], in [10], in [11] and in data set [12] was below 50% each time. In addition, the inhibition in data set [13] is below 50%; in data set [14], below 50%; in [15] it was below 50%; in [17], 47%.

For the compound `C1=C(c2ccnc3[nH]ccc23)SCCN1c1ccncn1`, the values for the IC50 in data set [2] and in data set [3] were 6.3 nM and 282 nM, respectively. The result in the data set with OVCAR-4 and in the data set with NCI/ADR-RES was inactive. For the same compound, the result with MOLT-4, in the data set with MDA-MB-468 and with SR was Active. The GI50 with LOX IMVI was above 1000 nM. For the same compound, in the data set listed under Homo sapiens [4], the Activity entry is “Dose-dependent-effect”. Moreover, the ΔTm in the data set listed under Homo sapiens [5] came out at 7.9 °C.

On to `C1=C(c2ccnc3[nH]ccc23)SCCN1c1ncnc2[nH]ccc12`, for which the outcome with OVCAR-4 and in the data set with NCI/ADR-RES was inactive. Moreover, the outcome with MOLT-4, in the data set with MDA-MB-468 and in the data set on SR was Active. For the same compound, the GI50 in the data set on LOX IMVI was above 1000 nM. Also, the inhibition result in [6] and in [16] was “Active” throughout. Moreover, the inhibition in [7], in data set [8], in data set [9], in data set [10], in data set [11] and in data set [12] was below 50% in each case. Besides, the inhibition in data set [13], in data set [14] and in [15] was below 50% throughout.

With `Cn1cncc1C1=CN(c2ccnc3[nH]ccc23)CCS1`, the IC50 in data set [2] amounted to 860 nM. The outcome with OVCAR-4 and in the data set on NCI/ADR-RES was inactive. In addition, the result in the data set on MOLT-4, with MDA-MB-468 and in the data set on SR was Active. In addition, the concentration for 50% growth inhibition (GI50) in the data set on LOX IMVI was above 1000 nM. Further, the inhibition entry in data set [7] and in [16] was “Active” throughout. In addition, the inhibition in data set [17] came to 1.7%.

As for `C1=C(c2ccnc3[nH]ccc23)SCCN1c1ccnc2[nH]ccc12`, in [2], the IC50 was 2800 nM. Further, the 50% growth inhibitory concentration (GI50) is 1550 nM in [1] and above 1000 nM in the data set with LOX IMVI. Moreover, the result in the data set with OVCAR-4 and in the data set on NCI/ADR-RES was inactive. In addition, the median lethal concentration (LC50) with MOLT-4 came out at 780 nM; in the data set with SR, 600 nM. Besides, in the data set on MDA-MB-468, the outcome was Active.

`Cn1cnc(Br)c1C1=CN(c2ncnc3[nH]cnc23)CCS1`: the result in the data set on OVCAR-4 and in the data set with NCI/ADR-RES was inactive. Moreover, the outcome in the data set on MOLT-4, in the data set on MDA-MB-468 and in the data set on SR was Active. For the same compound, the GI50 with LOX IMVI was above 1000 nM. In the data set listed under Homo sapiens [4], the Activity entry is “Dose-dependent-effect”. In the data set filed under Homo sapiens [5], the ΔTm was determined as 3.1 °C.

Take `Cn1cncc1C1=CN(c2ncnc3[nH]cnc23)CCS1`: the PB on Albumin came to 98%. For the same compound, the inhibition result in data set [6], in [7] and in data set [8] was “Active” each time.

These data come from ChEMBL document CHEMBL6182931, “Chemical Evolution of Aplithianine Class of Serine/Threonine Kinase Inhibitors” (J Med Chem, 2025).
